The target of data set [1] is T1, full-length β-Catenin (Homo sapiens, UniProt P35222).
T1 construct: Probe solution (15 nM full-length β-Catenin, 20 nM FITC labeled Axin peptide in buffer)
T1 sequence (P35222 1-781): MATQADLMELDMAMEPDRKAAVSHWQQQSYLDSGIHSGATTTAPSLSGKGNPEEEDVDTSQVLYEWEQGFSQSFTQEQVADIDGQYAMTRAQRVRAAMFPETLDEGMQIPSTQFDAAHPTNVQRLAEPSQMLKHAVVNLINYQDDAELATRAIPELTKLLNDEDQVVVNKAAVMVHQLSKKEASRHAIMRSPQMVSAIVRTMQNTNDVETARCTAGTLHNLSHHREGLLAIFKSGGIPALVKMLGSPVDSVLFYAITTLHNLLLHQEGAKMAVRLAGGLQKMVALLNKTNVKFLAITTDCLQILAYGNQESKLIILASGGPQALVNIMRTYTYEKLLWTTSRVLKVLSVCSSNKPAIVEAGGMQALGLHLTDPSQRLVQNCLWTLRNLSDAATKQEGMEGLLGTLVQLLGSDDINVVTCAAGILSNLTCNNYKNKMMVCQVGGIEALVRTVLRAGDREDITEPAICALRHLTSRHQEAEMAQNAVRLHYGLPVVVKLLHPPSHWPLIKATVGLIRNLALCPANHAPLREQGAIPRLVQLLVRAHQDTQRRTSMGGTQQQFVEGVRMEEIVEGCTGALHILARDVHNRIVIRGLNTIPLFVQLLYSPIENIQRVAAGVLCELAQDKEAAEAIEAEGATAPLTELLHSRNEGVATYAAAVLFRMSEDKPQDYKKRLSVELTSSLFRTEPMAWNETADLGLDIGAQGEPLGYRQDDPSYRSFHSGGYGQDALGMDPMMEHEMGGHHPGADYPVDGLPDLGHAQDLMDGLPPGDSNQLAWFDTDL
The experiment in a line: Competition fluorescence polarization assay for binding to beta-catenin (displacement of FITC labeled Axin peptide probe). The following applies: 15 nM full-length β-Catenin, 20 nM FITC labeled Axin peptide probe, 3-fold serial dilution from 5 μM; read-out: bCat EC50. The protocol: Peptide assessment: In one assay for assessing binding to beta-catenin, peptide solutions were prepared in buffer (50 mM Tris pH 8.0, 250 mM NaCl, 2% glycerol, 0.5 mM EDTA, 0.02% w/v sodium azide) using a 3-fold serial dilution from 5 μM. Probe solution (15 nM full-length β-Catenin, 20 nM FITC labeled Axin peptide in buffer ([FAM-PEG1-RRWPR(S5)ILD(S5)HVRRVWR (SEQ ID NO: 44)] where the two S5 residues are stapled, as reported in: Proc Natl Acad Sci USA. 2012 Oct. 30; 109(44):17942-7)) was prepared and incubated for 5 minutes, then 40 μL per well plated in a black polystyrene 384-well plate (Corning). Equal volume of the titrated peptide was added to the plate and incubated protected from light for 15 minutes prior to read. Reads were performed on a Spectramax M5 (Molecular Devices) in duplicate.

Data set [2] is described as follows: Measurement of LogD (CHI logD by HPLC). Type of data set: physicochemical. The following applies: CHI log D, 50 mM ammonium acetate pH 7.4 / acetonitrile gradient, C-18 column, 25° C. The protocol: Measurement of LogD: LogD values were measured on a Agilent 1260 HPLC with UV detector (254, 220 nm), using a Gemini NX C-18 50×3 mm column (Phenomenex) with a 6-minute 0-100% mobile phase gradient of A) 50 mM ammonium acetate pH 7.4 and B) Acetonitrile at 25° C. with a flow rate of 1 mL/min and injection volume of 3-5 uL.

Data set [3] is described as follows: Measurement of LogK (log k IAM by HPLC on IAM.PC.DD2 column). The class given is physicochemical. To be noted: 50 mM ammonium acetate pH 7.4 / acetonitrile, 30° C. The protocol:
Measurement of LogK: LogK values were measured on a Agilent 1260 HPLC with UV detector (254,280 nm) using a IAM.PC.DD2 100×4.6 mm column (Regis Technologies 1-774011-300) with a 6.5 min gradient of 0-90% B with mobile phase A of 50 mM ammonium acetate pH 7.4, and mobile phase B of Acetonitrile. The temperature was 30° C., the flow rate 1.5 mL/min, and the injection volume 3-5 uL. Calibration mixture IAM was purchased from Bio-mimetic Chromatography Ltd and used to run calibration, calculate CHI IAM value, then calculate logk IAM using equation: log k IAM=0.046*CHI IAM+0.42.

Starred links: 1 amine or outer side, 2 acyl side, 3 side chain; linkers in the order of their positions; H or OH if unused. Positions of bridges follow the written chain, without caps; N, C: chain ends. Residues, ends and D or L forms follow the SMILES beside them. No end group written: not given here. X1 = O=C(C[*:1])O[C@@H]1C=C[C@H](OC(=O)C[*:2])C1; X2 = O=C(C[*:1])O[C@@H]1CC[C@H](OC(=O)C[*:2])C1; Linker 16 = not defined here Bounds are passed on as bounds.

As for “37 (ADPATHRCEWAALHCELV; linker 8-15 via Linker 16 (inferred); reading uncertain) [Compound 37]”, the EC50 in data set [1] was over 10 µM. Moreover, the LogD in data set [2] is on record as 0.84. The LogK in data set [3] was found to be 1.34.

In the case of `CC[C@H](C)[C@@H]1NC(=O)[C@H](CC(C)C)NC(=O)[C@H](C)NC(=O)[C@H](C)NC(=O)[C@H](Cc2c[nH]cn2)NC(=O)[C@H](CCC(=O)O)NC(=O)[C@@H](NC(=O)[C@H](C)NC(=O)[C@H](Cc2c[nH]c3ccccc23)NC(=O)[C@H](CC(C)C)NC(=O)[C@H](C)NC(=O)[C@@H]2CCCN2C(=O)[C@H](CC(=O)O)NC(=O)[C@H](C)N)CSCC(=O)O[C@@H]2CC[C@@H](C2)OC(=O)CSC[C@@H](C(=O)N[C@@H](CCC(=O)O)C(=O)N[C@H](C(=O)N[C@@H](CCC(N)=O)C(N)=O)[C@@H](C)O)NC1=O` [Compound 47] (H-ADPALWACEHAALICETQ-NH2; linker 8-15 via X2; N-terminus and C-terminus assumed), the EC50 in data set [1] is over 10 µM. In data set [2], the chromatographic logD was determined as 0.91.

For `CC[C@H](C)[C@@H]1NC(=O)[C@H](CC(C)C)NC(=O)[C@H](C)NC(=O)[C@H](C)NC(=O)[C@H](Cc2c[nH]cn2)NC(=O)[C@H](CCC(=O)O)NC(=O)[C@@H](NC(=O)[C@H](C)NC(=O)[C@H](Cc2c[nH]c3ccccc23)NC(=O)[C@H](CC(C)C)NC(=O)[C@H](C)NC(=O)[C@@H]2CCCN2C(=O)[C@H](CC(=O)O)NC(=O)[C@H](C)N)CSCC(=O)O[C@@H]2C=C[C@@H](C2)OC(=O)CSC[C@@H](C(=O)N[C@@H](CCC(=O)O)C(=O)N[C@H](C(=O)N[C@@H](CCC(N)=O)C(N)=O)[C@@H](C)O)NC1=O` [Compound 48] (H-ADPALWACEHAALICETQ-NH2; linker 8-15 via X1; N-terminus and C-terminus assumed), the EC50 in data set [1] was over 10 µM. Also, the chromatographic logD in data set [2] was determined as 0.93.

In the case of “GPAKPEAPGEDASPDELHHYYQNLETYLYRVA-NH2 (C-terminus assumed) [Compound 15]”, in data set [1], the EC50 is over 10 µM. The same molecule gave a chromatographic logD in data set [2] of 0.82.

On to “GPAKPEAPGEDASPDELHTYYDTLYHYLTSVA-NH2 (C-terminus assumed) [Compound 22]”, for which the EC50 in data set [1] was over 10 µM. The molecule further gave a chromatographic logD in data set [2] of 1.09.

As for “GPAKPEAPGEDASPDELIFYYDHLSRYLTDVA-NH2 (C-terminus assumed) [Compound 20]”, in data set [1], the EC50 is over 10 µM. The molecule further yielded a chromatographic logD in data set [2] of 0.91.

For the molecule “GPAKPEAPGEDASPDELIHYYNSLDEYLYEVA-NH2 (C-terminus assumed) [Compound 16]”, the EC50 in data set [1] was over 10 µM. Also, in data set [2], the chromatographic logD is 0.53.

As for “GPAKPEAPGEDASPDELMHYYTSLEDYLDHVP-NH2 (C-terminus assumed) [Compound 18]”, the EC50 in data set [1] is over 10 µM. This molecule registered a chromatographic logD in data set [2] of 0.52.

With “GPAKPEAPGEDASPDELRMYYHELDNYLDQVA-NH2 (C-terminus assumed) [Compound 21]”, the EC50 in data set [1] was over 10 µM. The chromatographic logD in data set [2] was 0.44.

In the case of “GPAKPEAPGEDASPDELTYYYDELRDYLYSVA-NH2 (C-terminus assumed) [Compound 19]”, the EC50 in data set [1] was over 10 µM. In addition, in data set [2], the chromatographic logD was determined as 0.82.

Regarding “GPAKPEAPGEDASPDELYHYYTHLEEYLYDVA-NH2 (C-terminus assumed) [Compound 17]”, the EC50 in data set [1] was over 10 µM. Also, in data set [2], the chromatographic logD came to 0.64.

Consider “GPAKPEAPGEDASPDELYYYYDDLRQYLSTVA-NH2 (C-terminus assumed) [Compound 23]”, for which, in data set [1], the EC50 is over 10 µM. In data set [2], this molecule came in with a chromatographic logD of 0.81.

For “GPAKPEAPGEDASPEELYHYYWDLDDYLDRVA-NH2 (C-terminus assumed) [Compound 28]”, the EC50 in data set [1] is over 10 µM. Besides, the chromatographic logD in data set [2] amounted to 0.62.

As for “GPAKPEAPGEDASPIELWEYYESLETYLDNVA-NH2 (C-terminus assumed) [Compound 29]”, in data set [1], the EC50 was over 10 µM. Besides, in data set [2], the chromatographic logD is 0.73.

As for “GPAKPEAPGEDASPLELNLYYLDLHDYLQQVA-NH2 (C-terminus assumed) [Compound 30]”, the EC50 in data set [1] is over 10 µM. This molecule also came in with a chromatographic logD in data set [2] of 0.98.

“GPAKPEAPGEDASPNELHYYYWELDSYLENVA-NH2 (C-terminus assumed) [Compound 27]”: the half-maximal effective concentration (EC50) in data set [1] is over 10 µM. The chromatographic logD in data set [2] turned out to be 0.64.

Consider “GPAKPEAPGEDASPNELYYYYDELHYYLHDVA-NH2 (C-terminus assumed) [Compound 25]”, for which the EC50 in data set [1] was over 10 µM. This molecule yielded a chromatographic logD in data set [2] of 0.59.

For “GPAKPEAPGEDASPQELHDYYEILDNYLDWVA-NH2 (C-terminus assumed) [Compound 26]”, the EC50 in data set [1] was over 10 µM. For the same molecule, the chromatographic logD in data set [2] was 0.87.

Turning to “GPAKPEAPGEDASPTELYYYYDHLTDYLDVVP-NH2 (C-terminus assumed) [Compound 24]”, in data set [1], the EC50 is over 10 µM. This molecule also showed a chromatographic logD in data set [2] of 0.66.

Source of the values: patent US12398178B2, “Collections of peptides, peptide agents, and methods of use thereof” (Parabilis Medicines, Inc., priority 2018, dated 2025).
